The results in this text go back to patent US20130150377A1, “Tetrahydropyridinyl and Dihydropyrrolyl Compounds and the Use Thereof” (SHIONOGI & CO., LTD., priority 2008, published 2013).

The term IC50 denotes the point on the concentration scale where inhibition reaches its midpoint.

Test [1] concerns the target T1, L-type calcium channel (LTCC) subunits (α1c, α2δ, and β1) (Rattus norvegicus, UniProt P22002).
T1 construct: expressed in transfected cells; pcDNA6.2DEST α1c, pcDNA3.2DEST β1, pcDNA3.1-Zeo α2δ)
The experiment in a line: FLIPR calcium mobilization assay for L-type calcium channel (HEK293 cells expressing recombinant LTCC subunits). Type of test: cell-based. The note with it: calcium mobilization assay for L-type calcium channel blocking activity. As to the method: Recombinant human embryonal kidney cells (HEK293, ATCC) stably transfected with either N-type calcium channel (NTCC) subunits (α1b, α28, and β3) or L-type calcium channel (LTCC) subunits (α1c, α2δ, and […]) were routinely cultured in growth medium consisting of Dulbecco's Modified Eagles Medium containing 10% FBS, 100 U/mL penicillin, 100 μg/mL streptomycin, 4 mM L-glutamine, 500 μg/mL geneticin (G418), 20 μg/mL Blasticidin S (InVivogen, San Diego, Calif.) and 500 μg/mL zeocin (InVivogen).
FLIPR Calcium Mobilization Assay for L-type Calcium Channel.
One day prior to performing this assay, HEK293 cells stably expressing recombinant rat L-type calcium channel (LTCC) subunits (α1c, α2δ, and β1) were trypsinized, then seeded on poly-D-lysine-coated 96-well clear-bottom black plates (Becton Dickinson, Franklin Lakes, N.J.) at 75,000 cells/well. […] The FLIPR measured basal Fluo-4 fluorescence for 15 seconds, then added 0.05 mL of each compound tested diluted in LTCC assay buffer at final concentrations ranging from about 846 pM to about 17 μM. Fluo-4 fluorescence was then measured for 5 minutes. 0.1 mL KCl agonist dissolved in LTCC assay buffer was, then added to the cells to produce a final concentration of 90 mM KCl, and fluorescence was measured for another 45 seconds. […]
(A change in cytosolic calcium serves as a functional read-out for many receptors and channels.)

Test [2] concerns the target T2, N-type calcium channel (NTCC) (Homo sapiens, UniProt Q00975).
T2 construct: endogenous in cells; host or cells: differentiated IMR32 cells (ATCC)
Kind of test: FLIPR calcium mobilization assay for N-type calcium channel (differentiated IMR32 cells). Type of test: cell-based. The note with it: N-type calcium channel blockers, calcium mobilization in vitro assay. As to the method: Cell maintenance and differentiation. Unless noted otherwise, cell culture reagents were purchased from Mediatech of Herndon, Md. IMR32 cells (American Type Culture Collection, ATCC, Manassas, Va.) were routinely cultured in growth medium consisting of minimum essential medium containing 10% fetal bovine serum (FBS, Hyclone, Logan, Utah), 100 U/mL penicillin, 100 μg/mL streptomycin, 2 mM L-glutamine, 1 mM sodium pyruvate, and 1×MEM non-essential amino acids. 80-90% confluent flasks of cells were differentiated using the following differentiation medium: Growth medium plus 1 mM dibutyryl cyclic AMP (Sigma, St. Louis, Mo.), and 2.5 μM bromodeoxyuridine (Sigma). Cells were differentiated for 8 days by replacing differentiation medium every 2-3 days.
FLIPR Calcium Mobilization Assay for N-type Calcium Channel.
One day prior to performing this assay, differentiated IMR32 cells were treated with 1× CellStripper, and seeded on poly-D-lysine-coated 96-well clear-bottom black plates (Becton Dickinson, Franklin Lakes, N.J.) at 200,000 cells/well. On the day of the assay, the cell plates were washed with IMR32 buffer (127 mM NaCl, 1 mM KCl, 2 mM MgCl2, 700 μM NaH2PO4, 5 mM CaCl2, 5 mM NaHCO3, 8 mM HEPES, 10 mM glucose, pH 7.4), then pre-stimulated with KCl and loaded as follows: […] of IMR32 buffer, 0.05 mL of each compound tested diluted in IMR32 buffer containing 20 μM nitrendipine (Sigma), and 0.1 mL KCl dissolved in IMR32 buffer, plus Fluo-4 were added (3 μM final concentration, Molecular Probes, Eugene, Oreg.). Final test compound concentrations ranged from about 846 pM to about 17 μM, final nitrendipine concentration was 5 μM, and final KCl concentration was 90 mM. After 1 hour, the cells were washed twice with 0.05 mL of each compound tested in nitrendipine-containing IMR32 buffer (no KCl or Fluo-4), and then replaced with 0.1 mL of each compound tested in nitrendipine-containing IMR32 buffer. Plates were then transferred to a Fluorimetric Imaging Plate Reader (FLIPR^96, Molecular Devices, Inc., Sunnyvale, Calif.) for assay. The FLIPR measured basal Fluo-4 fluorescence for 315 seconds (i.e., 5 minutes and 15 seconds), then added 0.1 mL KCl agonist dissolved in IMR32 buffer and measured fluorescence for another 45 seconds. Final test compound concentrations on the cells after FLIPR read ranged from about 846 pM to about 17 μM, final nitrendipine concentration was 5 μM, and final KCl concentration was 90 mM. Data were collected over the entire time course and analyzed using Excel, Graph Pad Prism (version 3.02, Graph Pad, San Diego, Calif.), or an in-house non-linear regression analysis software.

Structures can show the parent of a compound that is named as a salt.

T2 sequence (Q00975 whole entry): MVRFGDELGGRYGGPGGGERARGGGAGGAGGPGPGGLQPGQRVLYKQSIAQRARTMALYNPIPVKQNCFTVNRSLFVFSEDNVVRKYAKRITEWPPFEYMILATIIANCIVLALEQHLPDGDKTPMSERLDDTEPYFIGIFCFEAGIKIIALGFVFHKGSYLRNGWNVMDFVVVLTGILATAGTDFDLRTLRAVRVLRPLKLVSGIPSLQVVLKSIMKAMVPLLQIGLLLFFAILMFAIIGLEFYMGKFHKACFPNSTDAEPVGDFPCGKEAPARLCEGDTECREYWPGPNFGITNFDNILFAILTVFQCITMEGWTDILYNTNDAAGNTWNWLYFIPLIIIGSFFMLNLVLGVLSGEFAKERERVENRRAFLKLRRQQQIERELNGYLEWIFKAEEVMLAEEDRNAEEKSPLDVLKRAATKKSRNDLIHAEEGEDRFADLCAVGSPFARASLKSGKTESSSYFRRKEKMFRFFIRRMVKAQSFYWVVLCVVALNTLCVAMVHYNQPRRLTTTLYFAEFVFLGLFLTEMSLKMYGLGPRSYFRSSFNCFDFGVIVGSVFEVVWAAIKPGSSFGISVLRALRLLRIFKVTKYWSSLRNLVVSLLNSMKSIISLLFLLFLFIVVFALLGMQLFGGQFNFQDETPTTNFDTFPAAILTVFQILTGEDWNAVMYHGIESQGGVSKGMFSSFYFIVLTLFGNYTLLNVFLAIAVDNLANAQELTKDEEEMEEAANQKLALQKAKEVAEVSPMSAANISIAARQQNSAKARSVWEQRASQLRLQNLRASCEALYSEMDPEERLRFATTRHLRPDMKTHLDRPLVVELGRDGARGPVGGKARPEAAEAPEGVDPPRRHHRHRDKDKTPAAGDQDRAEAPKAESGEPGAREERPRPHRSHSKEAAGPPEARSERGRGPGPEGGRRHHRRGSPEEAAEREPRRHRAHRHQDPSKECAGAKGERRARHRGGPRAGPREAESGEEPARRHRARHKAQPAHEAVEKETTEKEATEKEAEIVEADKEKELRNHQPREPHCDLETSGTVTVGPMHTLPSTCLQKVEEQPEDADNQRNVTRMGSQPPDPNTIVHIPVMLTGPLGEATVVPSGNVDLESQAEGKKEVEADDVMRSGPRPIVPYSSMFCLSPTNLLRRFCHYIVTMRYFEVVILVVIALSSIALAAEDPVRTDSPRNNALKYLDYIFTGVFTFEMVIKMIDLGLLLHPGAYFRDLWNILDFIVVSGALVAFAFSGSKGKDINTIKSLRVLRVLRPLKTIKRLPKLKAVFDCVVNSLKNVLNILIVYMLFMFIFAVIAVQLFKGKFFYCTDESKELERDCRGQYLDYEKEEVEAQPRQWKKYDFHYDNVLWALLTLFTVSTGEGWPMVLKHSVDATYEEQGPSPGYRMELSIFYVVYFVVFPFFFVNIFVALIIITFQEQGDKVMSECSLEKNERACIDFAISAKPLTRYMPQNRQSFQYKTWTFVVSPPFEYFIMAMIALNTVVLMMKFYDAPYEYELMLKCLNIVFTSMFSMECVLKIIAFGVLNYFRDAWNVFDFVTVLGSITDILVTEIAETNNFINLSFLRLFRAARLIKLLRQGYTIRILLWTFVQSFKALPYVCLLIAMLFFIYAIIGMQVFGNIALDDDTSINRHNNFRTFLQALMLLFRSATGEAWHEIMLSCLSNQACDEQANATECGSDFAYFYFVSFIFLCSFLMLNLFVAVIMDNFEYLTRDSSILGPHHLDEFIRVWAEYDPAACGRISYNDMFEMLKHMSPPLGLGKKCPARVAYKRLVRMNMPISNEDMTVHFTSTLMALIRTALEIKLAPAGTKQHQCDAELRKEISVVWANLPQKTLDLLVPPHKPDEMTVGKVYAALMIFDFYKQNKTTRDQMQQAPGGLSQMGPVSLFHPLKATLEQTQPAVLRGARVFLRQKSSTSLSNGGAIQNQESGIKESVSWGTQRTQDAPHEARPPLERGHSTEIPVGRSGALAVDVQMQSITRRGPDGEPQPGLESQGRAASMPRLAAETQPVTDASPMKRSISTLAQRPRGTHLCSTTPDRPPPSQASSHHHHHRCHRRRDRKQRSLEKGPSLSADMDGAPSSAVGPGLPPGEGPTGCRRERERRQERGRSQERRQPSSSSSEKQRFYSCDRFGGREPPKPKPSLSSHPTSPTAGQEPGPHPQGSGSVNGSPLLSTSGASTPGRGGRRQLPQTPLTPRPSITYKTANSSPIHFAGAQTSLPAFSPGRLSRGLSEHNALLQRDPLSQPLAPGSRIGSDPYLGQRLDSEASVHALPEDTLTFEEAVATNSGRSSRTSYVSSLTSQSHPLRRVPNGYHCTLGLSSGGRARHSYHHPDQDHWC
T2 sequence (P54289 25-956 partner limits assumed): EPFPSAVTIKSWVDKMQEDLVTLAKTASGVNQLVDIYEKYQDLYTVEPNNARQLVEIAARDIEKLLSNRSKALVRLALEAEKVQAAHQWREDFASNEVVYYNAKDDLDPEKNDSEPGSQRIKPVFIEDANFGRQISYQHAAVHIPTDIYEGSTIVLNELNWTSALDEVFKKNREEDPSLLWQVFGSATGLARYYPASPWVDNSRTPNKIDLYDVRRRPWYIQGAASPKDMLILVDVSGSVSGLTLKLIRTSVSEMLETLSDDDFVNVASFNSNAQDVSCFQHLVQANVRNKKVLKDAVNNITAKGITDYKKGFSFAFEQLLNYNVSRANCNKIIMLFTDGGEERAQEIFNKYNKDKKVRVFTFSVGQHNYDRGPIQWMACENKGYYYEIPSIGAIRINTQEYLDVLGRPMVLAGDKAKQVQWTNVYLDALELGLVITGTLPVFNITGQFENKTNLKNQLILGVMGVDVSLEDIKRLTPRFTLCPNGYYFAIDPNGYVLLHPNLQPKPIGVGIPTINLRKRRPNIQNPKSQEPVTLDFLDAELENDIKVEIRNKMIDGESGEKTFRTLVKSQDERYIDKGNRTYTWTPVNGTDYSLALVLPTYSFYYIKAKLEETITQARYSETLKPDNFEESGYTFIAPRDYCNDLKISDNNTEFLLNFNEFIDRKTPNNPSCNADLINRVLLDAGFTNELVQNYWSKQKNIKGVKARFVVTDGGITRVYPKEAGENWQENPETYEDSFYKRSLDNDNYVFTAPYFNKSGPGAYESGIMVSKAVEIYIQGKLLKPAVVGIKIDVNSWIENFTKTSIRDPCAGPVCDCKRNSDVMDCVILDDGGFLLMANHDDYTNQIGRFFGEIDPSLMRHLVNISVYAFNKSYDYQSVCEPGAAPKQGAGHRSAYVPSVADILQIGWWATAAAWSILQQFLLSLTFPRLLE
T2 sequence (P54289 957-1103 partner limits assumed): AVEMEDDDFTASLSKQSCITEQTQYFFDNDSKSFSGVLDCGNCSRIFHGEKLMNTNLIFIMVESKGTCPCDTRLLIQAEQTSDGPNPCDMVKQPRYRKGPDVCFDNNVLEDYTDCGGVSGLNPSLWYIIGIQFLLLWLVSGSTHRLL
T2 sequence (P54284 whole entry partner): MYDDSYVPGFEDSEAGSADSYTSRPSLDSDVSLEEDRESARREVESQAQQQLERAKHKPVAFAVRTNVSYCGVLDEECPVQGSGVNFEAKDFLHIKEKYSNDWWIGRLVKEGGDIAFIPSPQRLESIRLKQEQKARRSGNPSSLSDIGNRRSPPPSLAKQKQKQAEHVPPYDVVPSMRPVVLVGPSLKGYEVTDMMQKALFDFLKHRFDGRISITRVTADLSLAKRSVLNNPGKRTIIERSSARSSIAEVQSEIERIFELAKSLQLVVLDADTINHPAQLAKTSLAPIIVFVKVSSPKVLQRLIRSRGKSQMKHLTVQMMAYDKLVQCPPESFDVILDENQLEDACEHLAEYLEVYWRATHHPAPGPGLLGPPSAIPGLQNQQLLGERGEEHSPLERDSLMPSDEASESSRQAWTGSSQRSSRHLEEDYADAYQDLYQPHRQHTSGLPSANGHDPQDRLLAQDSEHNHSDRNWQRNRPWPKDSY

Regarding `O=C(NC1CC1)c1cccc(C2=CCN(Cc3ccc(OC(F)(F)F)cc3)CC2)n1` [Compound 9, 1′-(4-Trifluoromethoxybenzyl)-1′,2′,3′,6′-tetrahydro-[2,4′]bipyridinyl-6-carboxylic acid cyclopropylamide], the IC50 was > 20 µM in test [1] and 0.93 µM in test [2]. In the same order, the values of `O=C(NC1CC1)c1cccc(C2=CC(=O)N(S(=O)(=O)c3cccc(C(F)(F)F)c3)CC2)n1` [Compound 45, 6′-Oxo-1′-(3-trifluoromethylbenzenesulfonyl)-1′,2′,3′,6′-tetrahydro-[2,4′]bipyridinyl-6-carboxylic acid cyclopropylamide] are > 20 µM and 0.02 µM. Turning to `O=C(NC1CC1)c1cccc(C2=CCN(C(c3ccc(OC(F)(F)F)cc3)C(F)(F)F)CC2)n1` (stereo not drawn) [Compound 64, 1′-[2,2,2-Trifluoro-1-(4-trifluoromethoxyphenyl)ethyl]-1′,2′,3′,6′-tetrahydro-[2,4′]bipyridinyl-6-carboxylic acid cyclopropylamide], the IC50 in test [2] was 0.32 µM. The same measure, in the same setting: the value for `O=C(NC1CC1)c1cccc(C2=CCN(C(CO)c3ccc(OC(F)(F)F)cc3)CC2)n1` (stereo not drawn) [Compound 67, 1′-[2-Hydroxy-1-(4-trifluoromethoxyphenyl)ethyl]-1′,2′,3′,6-tetrahydro-[2,4′]bipyridinyl-6-carboxylic acid cyclopropylamide] was 1.34 µM.

`O=C(NC1CC1)c1cccc(C2=CCN(Cc3cc(C(F)(F)F)no3)CC2)n1` [Compound 76, N-Cyclopropyl-6-{1-[(3-trifluoromethylisoxazol-5-yl)methyl]-1,2,3,6-tetrahydropyridin-4-yl}picolinamide hydrochloride]: the IC50 in test [2] was found to be 2.76 µM. With `O=C(Nc1cccc(C2=CCN(S(=O)(=O)c3cccc(C(F)(F)F)c3)CC2)n1)C1CC1` [Compound 82, 1′-(3-Trifluoromethylbenzenesulfonyl)-1′,2′,3′,6′-tetrahydro[2,4′]bipyridinyl-6-cyclopropanoylamine], the half-inhibitory concentration (IC50) in test [2] was 0.3 µM. Same read-out and setting: the value for `O=C(NC1CC1)c1cccc(C2=CCN(S(=O)(=O)Nc3cccc(C(F)(F)F)c3)CC2)n1` [Compound 86, 1′-[(3-Trifluoromethylbenzene)aminosulfonyl]-1′,2′,3′,6′-tetrahydro-[2,4′]bipyridinyl-6-carboxylic acid cyclopropylamide] was 1.05 µM.
